# Literature values in patent US20240189256A1, “COMPOSITIONS FOR PRE-SURGICAL NUTRITIONAL SUPPLEMENTS” (TM Nutrition LLC, priority 2022, published 2024).
# Columns and labels:
# [1] = unless sepsis is present
# [2] = given orally
smiles,measurement,setting,value
N=C(N)NCCC[C@H](N)C(=O)O [arginine],supplementation safe and well tolerated up to,[1],up to 10 g/day
same,half-life,[2],1.5 to 2 h
